Test results as given in the NIST ThermoML archive (doi:10.1016/j.jct.2009.06.001).

Legend:
[1] = mn = molality of the nth substance listed, in mol/kg; details: 298.15 K, 101 kPa, Liquid; for speed of sound: Sing-around technique in a fixed-path interferometer; for mass density: Vibrating tube method
[2] = 298.15 K, 101.33 kPa, Liquid; for speed of sound: Sing-around technique in a fixed-path interferometer; for mass density: Vibrating tube method

c1ccccc1 [benzene] + CCCCCCC
[1]
Details	mass density [kg/m3]	speed of sound [m/s]
m1 = 0.1915	681.6	1132.3
m1 = 0.3783	683.56	1133.2
m1 = 0.5615	685.43	1133.9
m1 = 0.7515	687.34	1134.8
m1 = 0.943	689.24	1135.8

c1ccc(-c2ccccc2)cc1 [biphenyl] + C1CCCCC1
[1]
Details	mass density [kg/m3]	speed of sound [m/s]
m1 = 0.0342	774.82	1256
m1 = 0.0676	775.74	1256.7
m1 = 0.1061	776.79	1257.5
m1 = 0.1335	777.52	1258.1
m1 = 0.1732	778.61	1259

c1ccc(-c2ccccc2)cc1 [biphenyl] + CCCCCCC
[1]
Details	mass density [kg/m3]	speed of sound [m/s]
m1 = 0.0409	681.02	1133
m1 = 0.0772	682.37	1134.4
m1 = 0.113	683.67	1135.6
m1 = 0.1561	685.21	1137
m1 = 0.1949	686.6	1138.3

C1CCCCC1 [cyclohexane]
[2]
Details	mass density [kg/m3]	speed of sound [m/s]
–	773.87	1255.3

C1CCCCC1 [cyclohexane] + c1ccccc1
[1]
Details	mass density [kg/m3]	speed of sound [m/s]
m2 = 0.162	774.73	1254.7
m2 = 0.3316	775.59	1254.2
m2 = 0.5187	776.54	1253.5
m2 = 0.6616	777.26	1253.2
m2 = 0.8272	778.07	1252.7

CCCCCCC [heptane]
[2]
Details	mass density [kg/m3]	speed of sound [m/s]
–	679.55	1131.4

c1ccc(-c2cccc(-c3ccccc3)c2)cc1 [m-terphenyl] + C1CCCCC1
[1]
Details	mass density [kg/m3]	speed of sound [m/s]
m1 = 0.0253	775.15	1256.5
m1 = 0.0482	776.28	1257.4
m1 = 0.0693	777.33	1258.2
m1 = 0.0928	778.48	1259.2
m1 = 0.1161	779.62	1260.1

c1ccc(-c2cccc(-c3ccccc3)c2)cc1 [m-terphenyl] + CCCCCCC
[1]
Details	mass density [kg/m3]	speed of sound [m/s]
m1 = 0.0245	681.04	1133
m1 = 0.04	682	1133.8
m1 = 0.0536	682.83	1134.6
m1 = 0.0666	683.63	1135.3
m1 = 0.076	684.21	1135.9

c1ccc2ccccc2c1 [naphthalene] + C1CCCCC1
[1]
Details	mass density [kg/m3]	speed of sound [m/s]
m1 = 0.0805	775.71	1256.5
m1 = 0.1659	777.64	1257.8
m1 = 0.2522	779.56	1259.1
m1 = 0.3257	781.18	1260.2
m1 = 0.4055	782.91	1261.5

c1ccc2ccccc2c1 [naphthalene] + CCCCCCC
[1]
Details	mass density [kg/m3]	speed of sound [m/s]
m1 = 0.0934	682.41	1134.3
m1 = 0.1975	685.54	1137.2
m1 = 0.2708	687.7	1139.1
m1 = 0.3725	690.68	1141.8
m1 = 0.4561	693.03	1144

c1ccc(-c2ccccc2-c2ccccc2)cc1 [o-terphenyl] + C1CCCCC1
[1]
Details	mass density [kg/m3]	speed of sound [m/s]
m1 = 0.0245	775.07	1256.1
m1 = 0.0451	776.06	1256.8
m1 = 0.0688	777.19	1257.5
m1 = 0.093	778.35	1258.4
m1 = 0.1144	779.36	1259

c1ccc(-c2ccccc2-c2ccccc2)cc1 [o-terphenyl] + CCCCCCC
[1]
Details	mass density [kg/m3]	speed of sound [m/s]
m1 = 0.0267	681.11	1132.8
m1 = 0.0392	681.85	1133.5
m1 = 0.0544	682.75	1134.1
m1 = 0.0652	683.4	1134.6
m1 = 0.0763	684.05	1135.2

c1ccc2c(c1)ccc1ccccc12 [phenanthrene] + C1CCCCC1
[1]
Details	mass density [kg/m3]	speed of sound [m/s]
m1 = 0.0343	775.27	1256.4
m1 = 0.0591	776.28	1257.2
m1 = 0.0896	777.54	1258.2
m1 = 0.1162	778.63	1259
m1 = 0.1455	779.78	1259.8

c1ccc2c(c1)ccc1ccccc12 [phenanthrene] + CCCCCCC
[1]
Details	mass density [kg/m3]	speed of sound [m/s]
m1 = 0.0349	681.3	1133.2
m1 = 0.0513	682.12	1134
m1 = 0.0739	683.26	1135
m1 = 0.0812	683.59	1135.3
m1 = 0.1012	684.63	1136.2
